# Data: paper PMC7816213 (Journal of medicinal chemistry, 2020)
# Tests used:
# STK17B [1] = target: T1, STK17B (Homo sapiens, UniProt O94768); experiment: biochemical
# T1 sequence (O94768 1-372): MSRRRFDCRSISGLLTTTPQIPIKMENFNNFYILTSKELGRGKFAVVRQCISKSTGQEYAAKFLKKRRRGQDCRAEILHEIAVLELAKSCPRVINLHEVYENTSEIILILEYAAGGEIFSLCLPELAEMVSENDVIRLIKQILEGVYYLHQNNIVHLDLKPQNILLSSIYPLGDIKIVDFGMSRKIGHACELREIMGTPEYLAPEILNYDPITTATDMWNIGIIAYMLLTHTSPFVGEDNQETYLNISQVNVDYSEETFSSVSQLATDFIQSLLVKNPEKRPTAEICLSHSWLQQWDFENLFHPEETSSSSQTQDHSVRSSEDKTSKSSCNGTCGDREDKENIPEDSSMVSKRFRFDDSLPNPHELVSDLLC
# STK17B [2] = target: T1, STK17B; experiment: DiscoverX KINOMEscan binding, STK17B; details: DiscoverX binding assay
# STK17B [3] = target: T1, STK17B
# Microsomal stability = details: for Microsomal stability (%): % compound remaining in mouse liver microsomes at 30 min
# STK17A = target: T2, STK17A (Homo sapiens, UniProt Q9UEE5); experiment: Eurofins enzyme inhibition assay, STK17A; format: biochemical
# T2 sequence (Q9UEE5 1-414): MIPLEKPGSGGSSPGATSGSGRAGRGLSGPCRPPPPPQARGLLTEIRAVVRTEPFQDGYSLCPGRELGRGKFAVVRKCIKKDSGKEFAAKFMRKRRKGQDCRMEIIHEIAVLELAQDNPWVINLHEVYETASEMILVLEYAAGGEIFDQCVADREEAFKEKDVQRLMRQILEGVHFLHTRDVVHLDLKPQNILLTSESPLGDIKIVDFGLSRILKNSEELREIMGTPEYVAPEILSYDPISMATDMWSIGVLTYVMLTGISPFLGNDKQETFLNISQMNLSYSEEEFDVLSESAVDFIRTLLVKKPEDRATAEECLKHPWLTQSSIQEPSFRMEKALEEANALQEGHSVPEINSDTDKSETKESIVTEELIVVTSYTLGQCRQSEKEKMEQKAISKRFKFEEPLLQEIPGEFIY
# [4] = target: 403 wild type human kinases; experiment: DiscoverX KINOMEscan scanMAX panel; format: binding; details: for kinases with >75% displacement of the immobilized ligand: scanMAX panel of 403 wild type human kinases at 1 μM
# STK17B [5] = target: T1, STK17B; experiment: NanoBRET target engagement in HEK293 cells, STK17B; format: cell-based
# DAPK family = details: read-out: IC50 on the DAPK family; cited from earlier work
# STK17B [6] = target: T1, STK17B; details: KinaseSeeker IC50, compared with 4
# Tpl2 = details: read-out: Tpl2 IC50; Reported by Ni et al; cited from earlier work
compound,measurement,setting,value
"O=C(O)CSc1ncnc2cc(-c3cc4ccccc4s3)sc12 [Compound 11s, 2-((6-(Benzo[b]thiophen-2-yl)thieno[3,2-d]pyrimidin-4-yl)thio)acetic acid]",IC50,STK17B [1],0.043 ± 0.0035 µM
same,selectivity over CAMKK1 and CAMKK2,STK17B [2],< 10 fold
same,selectivity for STK17B over STK17A,STK17B [3]; enzyme assays,> 100 fold
same,selectivity for STK17B over all of the other kinases tested,STK17B [3]; enzyme assays,> 100 fold
same,Microsomal stability (%),Microsomal stability,> 50%
same,IC50,STK17A,5 to 9 µM
same,kinases with >75% displacement of the immobilized ligand,[4],Eight
same,selectivity for STK17B over CAMKK2 in cells,STK17B [5]; NanoBRET target engagement assays,> 10 fold
"COc1ccc(-c2cc3ncnc(SCC(=O)O)c3s2)cc1F [Compound 11z, 2-((6-(3-Fluoro-4-methoxyphenyl)thieno[3,2-d]pyrimidin-4-yl)thio)acetic acid]",drop in cell potency,"STK17B [5]; NanoBRET, compared with 11y",1.3 fold
"O=C(O)CSc1ncnc2cc(-c3ccc(N4CCOCC4)cc3)sc12 [Compound 11p, 2-((6-(4-Morpholinophenyl)thieno[3,2-d]pyrimidin-4-yl)thio)acetic acid]",Microsomal stability (%),Microsomal stability,> 50%
"O=C(O)CSc1ncnc2cc(-c3ccc(C4CC4)cc3)sc12 [Compound 11h, 2-((6-(4-Cyclopropylphenyl)thieno[3,2-d]pyrimidin-4-yl)thio)acetic acid]",Microsomal stability (%),Microsomal stability,> 50%
CN1CCN(c2ccc3nc(-c4c(N)c5c(F)cccc5[nH]c4=O)[nH]c3c2)CC1 [dovitinib],IC50,DAPK family,1 to 5 µM
"O=C(O)CSc1ncnc2cc(-c3cccc(N4CCOCC4)c3)sc12 [Compound 11o, 2-((6-(3-Morpholinophenyl)thieno[3,2-d]pyrimidin-4-yl)thio)acetic acid]",Microsomal stability (%),Microsomal stability,> 50%
"CSc1cccc(-c2cc3ncnc(SCC(=O)O)c3s2)c1 [Compound 11b, 2-((6-(3-(Methylthio)phenyl)thieno[3,2-d]pyrimidin-4-yl)thio)acetic acid]",fold less potent than 4 in the STK17B binding assay,STK17B [6],about 2.5 fold
same,fold less potent than 4 in the STK17B cell assay,"STK17B [5]; NanoBRET IC50, compared with 4",about 2.5 fold
"O=C(O)COc1ncnc2cc(-c3ccc4[nH]ncc4c3)sc12 [Compound 6, reference compound]",IC50,Tpl2,1 µM
"O=C(O)CSc1ncnc2sc(-c3cc4ccccc4s3)cc12 [Compound 19g, 2-((6-(Benzo[b]thiophen-2-yl)thieno[2,3-d]pyrimidin-4-yl)thio)acetic acid]",fold less active as an inhibitor of STK17B than the chemical probe 11s,STK17B [3]; 19g compared to 11s (Table 9),> 100 fold
same,kinases with >65% displacement of the immobilized ligand,[4]; scanMAX panel at 1 μM,5
same,kinases with >75% displacement of the immobilized ligand,[4],no kinase
"CSc1ccc(-c2cc3ncnc(SCC(=O)O)c3s2)cc1 [Compound 4, 2-((6-(4-(Methylthio)phenyl)thieno[3,2-d]pyrimidin-4-yl)thio)acetic acid]",compound consumed in mice liver microsomes,Microsomal stability; After 30 minutes,100%
same,IC50,Tpl2,3.4 µM
